Assay results published in US7094801B2, “Chalcone derivatives and their use to treat diseases” (Atherogenics, Inc., priority 2001, dated 2006).
Structures can show the parent of a compound that is named as a salt.

Test system: VCAM-1
Experiment: In Vitro VCAM-1 Assay (TNF-α stimulated HAEC or HPAEC, cell ELISA)
Format: cell-based, human
Settings: Homo sapiens, 16 h, TNF-α (1 ng/ml) stimulated HAEC or HPAEC, approximately 16 hours
Description: Cell Culture and compound dosing: Cultured primary human aortic (HAEC) or pulmonary (HPAEC) endothelial cells were obtained from Clonetics, Inc., and were used below passage 9. Cells were seeded in 96 well plates such that they would reach 90–95% confluency by the following day. On the following day the cells were stimulated with TNF-α (1 ng/ml) in the presence or absence of compounds dissolved in DMSO such that the final concentration of DMSO is 0.25% or less. To establish a dose curve for each compound, four concentrations in 2- to 5-fold increments were used. Cells were exposed to TNF-α and compounds for approximately 16 hours. The next day the cells were examined under microscope to score for visual signs of toxicity or cell stress.
Following 16 hr exposure to TNF-α and compound the media was discarded and the cells were washed once with Hanks Balanced Salt Solution (HBSS)/Phosphate buffered saline (PBS) (1:1). Primary antibodies against VCAM-1 (0.25 μg/ml in HBSS/PBS+5% FBS) were added and incubated for 30–60 minutes at 37° C. Cells were washed with HBSS/PBS three times, and secondary antibody Horse Radish Peroxidase (HRP)-conjugated goat anti-mouse IgG (1:500 in HBSS/PBS+5% FBS) were added and incubated for 30 minutes at 37° C. Cells were washed with HBSS/PBS four time and TMB substrate were added and incubated at room temperature in the dark until there was adequate development of blue color. The length of time of incubation was typically 5–15 minutes. 2N sulfuric acid was added to stop the color development and the data was collected by reading the absorbance on a BioRad ELISA plate reader at OD 450 nm. The results are expressed as IC50 values (the concentration (micromolar) of compound required to inhibit 50% of the maximal response of the control sample stimulated by TNF-α only).

Row | Compound | IC50
1 | COc1cc(OC)c(-c2cc3ccccc3s2)cc1/C=C/C(=O)c1ccc(C(=O)NCCN2CCOCC2)cc1 [Example 90, 4-[3E-(5-Benzo[b]thiophen-2-yl-2,4-dimethoxy-phenyl)-acryloyl]-N-(2-morpholin-4-yl-ethyl)-benzamide] | < 1 µM
2 | CCOC(=O)C1(C(=O)OCC)Oc2ccc(C(=O)/C=C/c3cc(OC)c(OC)c(-c4cccs4)c3)cc2O1 [Example 103, 5-[3E-(3,4-Dimethoxy-5-thiophen-2-yl-phenyl)-acryloyl]-benzo[1,3]dioxole-2,2-dicarboxylic acid, diethyl ester] | > 10 µM
3 | COC(=O)c1ccc(-c2cc(/C=C/C(=O)c3ccc(C(=O)O)cc3)c(OC)cc2OC)s1 [Example 51, 5-{5-[3-(4-Carboxy-phenyl)-3-oxo-E-propenyl]-2,4-dimethoxy-phenyl}-thiophene-2-carboxylic acid methyl ester] | < 5 µM
4 | COc1cc(OC)c(-c2cc3ccccc3s2)cc1/C=C/C(=O)c1ccc(C(=O)O)cc1 [Example 120, 4-[3E-(5-Benzo[b]thien-2-yl-2,4-dimethoxyphenyl)-acryloyl]-benzoic acid, N-methyl-D-glucamine salt] | < 1 µM
5 | COc1cc(OC)c(-c2cccs2)cc1/C=C/C(=O)c1ccc(C(C)(C)C(=O)O)cc1 [Example 77, 2-{4-[3E-(2,4-Dimethoxy-5-thiophen-2-yl-phenyl)-acryloyl]-phenyl}-2-methyl-propionic acid] | < 5 µM
6 | COc1cc(OC)c(-c2cc3ccccc3s2)cc1/C=C/C(=O)c1ccc(NC2OC(CO)C(O)C(O)C2O)cc1 [Example 99, 3E-(5-Benzo[b]thiophen-2-yl-2,4-dimethoxy-phenyl)-1-[4-(D-glucopyranosylamino)-phenyl]-propenone] | > 10 µM
7 | COc1cc(OC)c(-c2cc3ccccc3s2)cc1/C=C\C(=O)c1ccc(C(=O)O)cc1 [Example 79, 4-[3Z-(5-Benzo[b]thien-2-yl-2,4-dimethoxyphenyl)-acryloyl]-benzoic acid] | < 1 µM
8 | COc1cc(OC)c(-c2cc3ccccc3s2)cc1/C=C/C(=O)c1ccc(SCC(=O)O)cc1 [Example 23, {4-[3E-(5-Benzo[b]thiophen-2-yl-2,4-dimethoxy-phenyl)-acryloyl]-phenylthio}-acetic acid] | < 1 µM

More lines, now with the values ahead:

Row | IC50 | Compound
9 | > 10 µM | O=C(/C=C/c1ccc(-c2cccs2)cc1)c1ccc(SC(F)(F)C(=O)O)cc1 [Example 25, Difluoro-{4-[3E-(4-thiophen-2-yl-phenyl)-acryloyl]-phenylthio}-acetic acid, sodium salt]
10 | < 10 µM | O=C(O)c1ccc(C(=O)/C=C/c2cc(-c3cccs3)ccc2N2CCCC2)cc1 [Example 63, 4-[3E-(2-Pyrrolidin-1-yl-5-thiophen-2-yl-phenyl)-acryloyl]-benzoic acid]
11 | < 5 µM | COc1cc(OC)c(-c2cc3ccccc3s2)cc1/C=C/C(=O)c1ccc(S(N)(=O)=O)cc1 [Example 80, 4-[3E-(5-Benzo[b]thiophen-2-yl-2,4-dimethoxy-phenyl)-acryloyl]-benzenesulfonamide]
12 | < 5 µM | COc1cc(/C=C/C(=O)c2ccc3c(ccn3C)c2)cc(-c2cccs2)c1OC [Example 28, 3E-(3,4-Dimethoxy-5-thiophen-2-yl-phenyl)-1-(1-methyl-1H-indol-5-yl)-propenone]

Test system: not given
Experiment: not given
Settings: not given

Row | Compound | melting point
13 | COc1cc(OC)c(-c2cc3ccccc3s2)cc1/C=C/C(=O)c1ccc(C(=O)O)cc1 (as salt: salt) [Example 120, 4-[3E-(5-Benzo[b]thien-2-yl-2,4-dimethoxyphenyl)-acryloyl]-benzoic acid, N-methyl-D-glucamine salt] | 75 to 80 °C
14 | COc1cc(OC)c(-c2cc3ccccc3n2C)cc1/C=C/C(=O)c1ccc(C(=O)O)cc1 [Example 116, 4-{3E-[2,4-Dimethoxy-5-(1-methyl-1H-indol-2-yl)-phenyl]-acryloyl}-benzoic acid] | 157 to 160 °C
15 | COc1cc(OC(C)(C)C(=O)O)c(/C=C/C(=O)c2ccc(C(=O)O)cc2)cc1-c1cccs1 [Example 59, 4-{3E-[2-(1-Carboxy-1-methyl-ethoxy)-4-methoxy-5-thiophen-2-yl-phenyl]-acryloyl}-benzoic acid] | 223 to 225 °C
16 | COc1cc(OCC(=O)N2CCOCC2)c(/C=C/C(=O)c2ccc(C(=O)O)cc2)cc1-c1cccs1 [Example 72, 4-{3E-[4-Methoxy-2-(2-morpholin-4-yl-2-oxo-ethoxy)-5-thiophen-2-yl-phenyl]-acryloyl}-benzoic acid] | 231 to 233 °C
17 | COc1cc(OCCC2CCCN2C)c(/C=C/C(=O)c2ccc(C(=O)O)cc2)cc1-c1cccs1.Cl (centres unmarked) [Example 73, 4-(3E-{4-Methoxy-2-[2-(1-methyl-pyrrolidin-2-yl)-ethoxy]-5-thiophen-2-yl-phenyl}-acryloyl)-benzoic acid, hydrochloride] | 206 to 208 °C
18 | COc1cc(OC)c(-c2cc3ccccc3s2)cc1/C=C/C(=O)c1ccc(C(=O)[O-])cc1.[Na+] [Example 56, 4-[3E-(5-Benzo[b]thiophen-2-yl-2,4-dimethoxy-phenyl)-acryloyl]-benzoic acid, sodium salt] | > 235 °C
19 | COc1cc(OC)c(-c2c[nH]c(C3CC3)n2)cc1/C=C/C(=O)c1ccc(C(=O)O)cc1.Cl [Example 105, 4-{3E-[5-(2-Cyclopropyl-1H-imidazol-4-yl)-2,4-dimethoxy-phenyl]-acryloyl}-benzoic acid, hydrochloride] | > 240 °C
20 | O=C([O-])c1ccc(/C=C/C(=O)c2ccc(-c3cccs3)cc2)cc1.[Na+] [Example 17, 4-[3-{4-(thien-2-yl)-phenyl}-3-oxo-E-propenyl]-benzoic acid, sodium salt] | > 260 °C

The next lines start with the values.

Row | melting point | Compound
21 | 163 to 164 °C (dec.) | COc1cc(OCc2nnn[nH]2)c(/C=C/C(=O)c2ccc(S(N)(=O)=O)cc2)cc1-c1cccs1 [Example 89, 4-{3E-[4-Methoxy-2-(1H-tetrazol-5-ylmethoxy)-5-thiophen-2-yl-phenyl]-acryloyl}-benzenesulfonamide]
22 | 127 to 128 °C | COc1cc(OC)c(-c2cc3ccccc3s2)cc1/C=C/C(=O)c1ccc(S(=O)(=O)c2ccccc2)cc1 [Example 107, 1-(4-Benzenesulfonyl-phenyl)-3E-(5-benzo[b]thiophen-2-yl-2,4-dimethoxy-phenyl)-propenone]
23 | > 260 °C | COc1cc(OC)c(-c2nc3cccnc3[nH]2)cc1/C=C/C(=O)c1ccc(S(N)(=O)=O)cc1 [Example 112, 4-{3E-[5-(3H-Imidazo[4,5-b]pyridin-2-yl)-2,4-dimethoxy-phenyl]-acryloyl}-benzenesulfonamide]
24 | 194 to 195 °C | COc1cc(OC)c(C2C=CCO2)cc1/C=C/C(=O)c1ccc(S(N)(=O)=O)cc1 (centres unmarked) [Example 121, 4-{3E-[5-(2,5-Dihydro-furan-2-yl)-2,4-dimethoxy-phenyl]-acryloyl}-benzenesulfonamide]
25 | 152 to 153 °C | NS(=O)(=O)c1ccc(C(=O)/C=C/c2cccc(C3CC=CO3)c2)cc1 (centres unmarked) [Example 119, 4-{3-[3E-(2,3-Dihydro-furan-2-yl)-phenyl]-acryloyl}-benzenesulfonamide]
26 | > 240 °C | COc1cc(OC)c(-c2nncn2CC(C)C)cc1/C=C/C(=O)c1ccc(S(N)(=O)=O)cc1 [Example 109, 4-{3E-[5-(4-Isobutyl-4H-[1,2,4]triazol-3-yl)-2,4-dimethoxy-phenyl]-acryloyl}-benzenesulfonamide]
27 | 235 °C (dec.) | COc1cc(OCCN2CCOCC2)c(/C=C/C(=O)c2ccc(S(N)(=O)=O)cc2)cc1-c1cccs1.Cl
28 | 164 to 165 °C | COc1cc(OC(C)(C)C(=O)O)c(/C=C/C(=O)c2ccc(S(N)(=O)=O)cc2)cc1-c1cccs1 [Example 82, 2-{5-Methoxy-2-[3-oxo-3-(4-aminosulfonyl-phenyl)-E-propenyl]-4-thiophen-2-yl-phenoxy}-2-methyl-propionic acid]
29 | 222 to 225 °C | O=C(O)CNC(=O)Nc1ccc(C(=O)/C=C/c2ccc(-c3cccs3)cc2)cc1 [Example 97, 4(3E-{4-[3-(4-Thiophen-2-yl-phenyl)-acryloyl]-phenyl}-ureido)-acetic acid]
30 | 235 °C (dec.) | COc1cc(OCC(N)=O)c(/C=C/C(=O)c2ccc(C(=O)O)cc2)cc1-c1cccs1 [Example 71, 4-[3E-(2-Carbamoylmethoxy-4-methoxy-5-thiophen-2-yl-phenyl)-acryloyl]-benzoic acid]
31 | 253 to 255 °C | COc1cc(OC)c(-c2cccnc2)cc1/C=C/C(=O)c1ccc(S(N)(=O)=O)cc1 [Example 104, 4-[3E-(2,4-Dimethoxy-5-pyridin-3-yl-phenyl)-acryloyl]-benzenesulfonamide]
32 | 164 to 165 °C | COc1cc(Oc2cccc(C)n2)c(/C=C/C(=O)c2ccc(S(N)(=O)=O)cc2)cc1-c1cccs1 [Example 122, 4-{3E-[4-Methoxy-2-(6-methyl-pyridin-2-yloxy)-5-thiophen-2-yl-phenyl]-acryloyl}-benzenesulfonamide]
